Test results as given in PubChem BioAssay AID2060601 (Molecular Pharmacology Branch, DTP, NCI, 2025).
pIC50: −log10 of the molar value.

System: 874868-142-R-J2-PDC complex spheroids, growth % test/control
Assay: Anticancer human tumor 874868-142-R-J2-PDC patient-derived head and neck squamous carcinoma cell line growth inhibition [CLK]
Details: for pIC50: curve of first compound; for viability, T/C: stronger effect = lower value
In short: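 Multi-cell-type spheroids combined patient-derived tumor cells with HUVEC endothelial cells and human mesenchymal stem cells. Paired agents were dosed in half-log steps down from about clinical Cmax, or from 10 microM where Cmax was unknown.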

[1] = second compound 0.0316 µM, first compound 0.0316 µM
[2] = second compound 0.0316 µM, first compound 0.1 µM
[3] = second compound 0.0316 µM, first compound 0.316 µM
[4] = second compound 0.0316 µM, first compound 1 µM
[5] = second compound 0.0316 µM, first compound 3.16 µM
[6] = second compound 0.0316 µM, first compound 10 µM
[7] = second compound 0.1 µM, first compound 0.0316 µM
[8] = second compound 0.1 µM, first compound 0.1 µM
[9] = second compound 0.1 µM, first compound 0.316 µM
[10] = second compound 0.1 µM, first compound 1 µM
[11] = second compound 0.1 µM, first compound 3.16 µM
[12] = second compound 0.1 µM, first compound 10 µM
[13] = second compound 0.316 µM, first compound 0.0316 µM
[14] = second compound 0.316 µM, first compound 0.1 µM
[15] = second compound 0.316 µM, first compound 0.316 µM
[16] = second compound 0.316 µM, first compound 1 µM
[17] = second compound 0.316 µM, first compound 3.16 µM
[18] = second compound 0.316 µM, first compound 10 µM
[19] = second compound 1 µM, first compound 0.0316 µM
[20] = second compound 1 µM, first compound 0.1 µM
[21] = second compound 1 µM, first compound 0.316 µM
[22] = second compound 1 µM, first compound 1 µM
[23] = second compound 1 µM, first compound 3.16 µM
[24] = second compound 1 µM, first compound 10 µM
[25] = second compound 3.16 µM, first compound 0.0316 µM
[26] = second compound 3.16 µM, first compound 0.1 µM
[27] = second compound 3.16 µM, first compound 0.316 µM
[28] = second compound 3.16 µM, first compound 1 µM
[29] = second compound 3.16 µM, first compound 3.16 µM
[30] = second compound 3.16 µM, first compound 10 µM
[31] = second compound 10 µM, first compound 0.0316 µM
[32] = second compound 10 µM, first compound 0.1 µM
[33] = second compound 10 µM, first compound 0.316 µM
[34] = second compound 10 µM, first compound 1 µM
[35] = second compound 10 µM, first compound 3.16 µM
[36] = second compound 10 µM, first compound 10 µM
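Also: spheroids exposed to the compounds for 7 days.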
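For viability, T/C in this document: 100% = DMSO vehicle control viability.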

CC1(C)CCC(CN2CCN(c3ccc(C(=O)NS(=O)(=O)c4ccc(NCC5CCOCC5)c([N+](=O)[O-])c4)c(Oc4cnc5[nH]ccc5c4)c3)CC2)=C(c2ccc(Cl)cc2)C1 + CN1CCN(c2cc(C(=O)Nc3cc4cc(-c5cnn(C)c5)ccc4cn3)ccn2)CC1
pIC50 (second compound 0.0316 µM): < 5.00 | pIC50 (second compound 0.1 µM): < 5.00 | pIC50 (second compound 0.316 µM): > 7.50 | pIC50 (second compound 1 µM): > 7.50 | pIC50 (second compound 3.16 µM): > 7.50 | pIC50 (second compound 10 µM): > 7.50 | viability, T/C [1]: 72.6% | viability, T/C [2]: 90.4% | viability, T/C [3]: 69.6% | viability, T/C [4]: 96.1% | viability, T/C [5]: 76.6% | viability, T/C [6]: 70% | viability, T/C [7]: 77.6% | viability, T/C [8]: 69.9% | viability, T/C [9]: 67.1% | viability, T/C [10]: 75.9% | viability, T/C [11]: 47.2% | viability, T/C [12]: 58.9% | viability, T/C [13]: 20.8% | viability, T/C [14]: 17.6% | viability, T/C [15]: 17% | viability, T/C [16]: 18.8% | viability, T/C [17]: 12.8% | viability, T/C [18]: 11.3% | viability, T/C [19]: 0.46% | viability, T/C [20]: 4.39% | viability, T/C [21]: 0.38% | viability, T/C [22]: 0.29% | viability, T/C [23]: 0.25% | viability, T/C [24]: 0.25% | viability, T/C [25]: 0.23% | viability, T/C [26]: 0.22% | viability, T/C [27]: 0.22% | viability, T/C [28]: 0.13% | viability, T/C [29]: 0.22% | viability, T/C [30]: 0.19% | viability, T/C [31]: 0.13% | viability, T/C [32]: 3.51% | viability, T/C [33]: 1.25% | viability, T/C [34]: 0.25% | viability, T/C [35]: 0.17% | viability, T/C [36]: 1.58%

CC1COCCN1c1cc(C2(S(C)(=N)=O)CC2)nc(-c2ccnc3[nH]ccc23)n1 (centres undefined) + CN1CCN(c2cc(C(=O)Nc3cc4cc(-c5cnn(C)c5)ccc4cn3)ccn2)CC1
pIC50 (second compound 0.0316 µM): 5.72 | pIC50 (second compound 0.1 µM): 6.24 | pIC50 (second compound 0.316 µM): > 7.50 | pIC50 (second compound 1 µM): > 7.50 | pIC50 (second compound 3.16 µM): > 7.50 | pIC50 (second compound 10 µM): > 7.50 | viability, T/C [1]: 87.7% | viability, T/C [2]: 82.5% | viability, T/C [3]: 71.3% | viability, T/C [4]: 73.5% | viability, T/C [5]: 31.2% | viability, T/C [6]: 27.6% | viability, T/C [7]: 68.9% | viability, T/C [8]: 60.9% | viability, T/C [9]: 59.3% | viability, T/C [10]: 42% | viability, T/C [11]: 20.8% | viability, T/C [12]: 20.9% | viability, T/C [13]: 16.6% | viability, T/C [14]: 19.8% | viability, T/C [15]: 18.4% | viability, T/C [16]: 10.8% | viability, T/C [17]: 13.7% | viability, T/C [18]: 7.51% | viability, T/C [19]: 0.41% | viability, T/C [20]: 0.3% | viability, T/C [21]: 0.49% | viability, T/C [22]: 0.28% | viability, T/C [23]: 0.29% | viability, T/C [24]: 0.24% | viability, T/C [25]: 0.19% | viability, T/C [26]: 0.25% | viability, T/C [27]: 0.22% | viability, T/C [28]: 0.29% | viability, T/C [29]: 1.32% | viability, T/C [30]: 0.36% | viability, T/C [31]: 5.76% | viability, T/C [32]: 0.21% | viability, T/C [33]: 1.83% | viability, T/C [34]: 0.21% | viability, T/C [35]: 0.21% | viability, T/C [36]: 0.23%
